Assay [1] relates to phospho-akt (Thr308) in PC-3 cells. Briefly: Inhibition of phospho-akt (Thr308) in PC-3 cells, MSD phospho-akt 308 ELISA kit. The assay is classed as cell-based. As to conditions: Homo sapiens, 2 hours, no serum, read-out: EC50. The method, then:
PC-3 cells were harvested by trypsin and counted. Cells were plated in coated 96-well flat bottom plates (plate 15,000 cells/well in 100 ul growth media (10% FBS, 1× pen-strep) an place in an incubator overnight.
Subject inhibitors were stocked at 50 mM, then diluted to 30 mM (4.8 μl cpd plus […] DMSO) in 100% DMSO. Three-fold dilutions were performed from 30 mM stock. (4 μl into 8 ul 100% DMSO). Aliquots of 1.0 μl of inhibitor solution were transferred into SF Medium (using deep well block).
Control wells were prepared as follows. For DMSO high controls, 1.0 μl of 100% DMSO was added into 1.0 ml SF. For low controls for PC-3 cells, 5 μM of Wortmannin (10 μl of 1 mM Wortmannin stock was added into 2 ml SF Medium. The supernatant media was removed and the plate was blotted. 100 μl of controls/media or compound/media were added to cells and placed in incubator for 2 hours. The supernatant media was removed and the plate was blotted. 55 μl of the MSD complete lysis buffer was added (10 mls Tris Lysis buffer, 200 ul protease inhibitor, 100 ul phosphatase inhibitor 1, and 100 ul phosphatase inhibitor II). The plate was placed on a plate shaker for 60 mins at 4 deg.
MSD plates were blocked for 1 hour by adding 150 μl of Blocking Solution (3% BSA) to each well. The MSD plates were washed 4× with TBST, and 50 μl lysates were transferred to MSD plate and place on plate shaker shake at 4 degrees O/N, light shaking (speed 3.5). The plate was washed 4× with TBST.
25 μl of Ab detection solution was added to each well. The plate was sealed and incubated 1 hr RT, light shaking (speed 3.5). The plate was washed 4 times with TBST. 150 μl of Read Buffer was added (5 mls 4×MSD Read Buffer+15 mls water). Finally the plate was read immediately on the MSD plate reader.
(In general: ELISA stands for enzyme-linked immunosorbent assay.)

In another assay the target is PDK1 (Homo sapiens (Human), UniProt O15530). Briefly: PDK1 kinase assay (coupled PDK1/AKT/FAM-crosstide assay, IMAP fluorescence polarization). The assay is classed as biochemical. The method, then: A PDK1 kinase assay was performed as follows. PDK1 (amino acids 51-359) and AKT2 (amino acids 140-467 fused to PIFtide, amino acids […]) were expressed as N-terminally tagged GST fusion proteins in insect cells and purified to homogeneity. Enzyme activity was determined in a coupled PDK1/AKT/FAM-crosstide assay and phosphorylation of FAM-crosstide was determined by standard IMAP protocol (Molecular Devices). For inhibition studies, compounds were titrated 4-fold in DMSO and diluted 40-fold into assay buffer (10 mM Tris HCl pH7.2; 10 mM MgCl2; 0.01% Triton X-100; 1 mM DTT) containing PDK1, AKT2, and FAM-crosstide (final concentrations: 0.75 nM PDK1, 10 nM unphosphorylated AKT2, and 100 nM crosstide substrate). The kinase reaction was initiated by adding ATP to a final concentration of 40 μM of PDK1 and incubated at 25° C. for 30 min. To detect assay product, the kinase reaction was combined with Progressive Binding Solution (1:600 Progressive Binding Reagent, 50% Buffer A, 50% Buffer B, Molecular Devices) in a 1:3 ratio. The mixture was incubated for 2 hours at 25° C. and the plate was scanned on an Analyst AD with excitation at 485 nm and emission at 530 nm. The fluorescence polarization value “P” is defined by the equation below. The value “mP” is generated by multiplying the P value for each reaction well by a factor of 1000. The value “ΔmP” for each well is the mP value for that well minus the mP value for the average negative control. P=(Fpar−Fperp)/(Fpar+Fperp) Eq.:
Where “par” is fluorescence intensity parallel to the excitation plane; and “perp” is fluorescence intensity perpendicular to the excitation plane. ΔmP values were plotted as a function of compound concentration and the data were analyzed with a 4-parameter fit using GraphPad Prism software.

The mark [2] stands for this setting: inhibition of P308 Akt in PC-3 cells using MSD.
Where [3] appears, read: inhibition of P308 Akt in PC-3 cells, MSD.
The mark [4] stands for this setting: inhibition of phospo-PDK1 in vitro.

Counter-ions that a name gives are not always drawn. Like-named read-outs stand apart in the source and are kept apart here.

PDK1, sequence (O15530 51-359): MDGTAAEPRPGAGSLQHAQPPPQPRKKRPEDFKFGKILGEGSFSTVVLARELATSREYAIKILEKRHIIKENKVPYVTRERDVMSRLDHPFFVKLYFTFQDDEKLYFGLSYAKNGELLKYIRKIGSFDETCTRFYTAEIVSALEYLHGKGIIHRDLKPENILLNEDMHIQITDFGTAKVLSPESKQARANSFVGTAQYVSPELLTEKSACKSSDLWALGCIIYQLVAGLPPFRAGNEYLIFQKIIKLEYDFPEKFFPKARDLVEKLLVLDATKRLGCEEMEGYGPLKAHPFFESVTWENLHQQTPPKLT

One may read the EC50 as the concentration that produces a half-maximal response. Usually IC50 stands for the concentration that gives 50% inhibition. For the molecule `C[C@H](NC(=O)c1cc(C#N)cnc1NCc1ccc(-c2ccc(N)nc2)cc1)c1ccc(F)c(F)c1` [Example 367, (S)-2-(4-(6-aminopyridin-3-yl)benzylamino)-5-cyano-N-(1-(3,4-difluorophenyl)ethyl) nicotinamide], in assay [1] (setting [2]), the EC50 is under 1000 nM. This molecule yielded a half-maximal inhibitory concentration (IC50) against PDK1 (inhibition of PDK1 in vitro) of under 100 nM.
For the molecule `C[C@H](NC(=O)c1cc(C#N)cnc1NCc1ccc(-c2c[nH]c3ncnc(N)c23)cc1)c1ccc(F)cc1` [Example 41, 2-[4-(4-Amino-7H-pyrrolo[2,3-d]pyrimidin-5-yl)-benzylamino]-5-cyano-N-[(S)-1-(4-fluoro-phenyl)-ethyl]-nicotinamide], in assay [1] (setting [2]), the EC50 is under 1000 nM. The IC50 on PDK1 (inhibition of PDK1 in vitro) is under 100 nM.
As to `C[C@H](NC(=O)c1nc(C#N)cnc1NCC1CCC(c2cc3c(N)ncnc3n2C)CC1)c1ccc(F)c(F)c1` (stereo partly shown) [Example 340], in assay [1] (setting [2]), the half-maximal effective concentration (EC50) was in the range of 1000 to 10000 nM. On PDK1 (inhibition of PDK1 in vitro), the IC50 is over 5000 nM.
As to `C[C@H](NC(=O)c1cccnc1NCc1ccc(-c2ccc3nc(N)[nH]c3c2)s1)c1ccc(F)cc1` [Example 2.21, (S)-2-(((5-(2-amino-1H-benzo[d]imidazol-6-yl)thiophen-2-yl)methyl)amino)-N-(1-(4-fluorophenyl)ethyl)nicotinamide], in assay [1] (setting [3]), the EC50 was over 10000 nM. Besides, the concentration for half-maximal inhibition (IC50) on PDK1 (setting [4]) is 1000 to 5000 nM.
The matching figures for `Cn1cnc2cnc3ccc(-c4ccc(CNc5ncc(C(F)(F)F)cc5C(=O)NCc5ccc(F)c(F)c5)s4)cc3c21` [Example 2.26, N-(3,4-difluorobenzyl)-2-(((5-(1-methyl-1H-imidazo[4,5-c]quinolin-8-yl)thiophen-2-yl)methyl)amino)-5-(trifluoromethyl)nicotinamide]: under 1000 nM and under 100 nM.
For the molecule `N#Cc1cnc(NC/C=C/c2ccc3c(c2)NC(=O)/C3=C\c2cnc[nH]2)c(C(=O)O)c1` [Example 15.16, 2-((E)-3-((Z)-3-((1H-imidazol-5-yl)methylene)-2-oxoindolin-6-yl)allylamino)-5-cyanonicotinic acid], in assay [1] (setting [3]), the EC50 is over 10000 nM. The molecule further yielded an IC50 against PDK1 (setting [4]) of 100 to 1000 nM.
On to `O=C(NCc1ccc(F)c(F)c1)c1cccnc1NCc1cc(-c2c[nH]c3ncc(-c4ccn[nH]4)cc23)ccn1` [Example 54, 2-((4-(5-(1H-pyrazol-5-yl)-1H-pyrrolo[2,3-b]pyridin-3-yl)pyridin-2-yl)methylamino)-N-(3,4-difluorobenzyl)nicotinamide], for which, in assay [1] (setting [2]), the half-maximal effective concentration (EC50) was under 1000 nM. Also, the IC50 against PDK1 (inhibition of PDK1 in vitro) was under 100 nM.
Take `C[C@H](NC(=O)c1nc(C#N)cnc1NCc1ccc(-c2cnc(N)c(CCC3CCNC3)n2)cc1)c1ccc(F)c(F)c1` (single isomer, unassigned) [Example 79]: in assay [1] (PC-3, 2 h, inhibition of P308 Akt in PC-3 cells using MSD), the EC50 was under 1000 nM. At PDK1 (inhibition of PDK1 in vitro), this molecule registered an IC50 of under 100 nM.
As to `O=C1Nc2cc(/C=C/CNc3ncccc3C(=O)NCc3ccc(F)cc3)ccc2/C1=C/c1cnc[nH]1` [Example 15.21, 2-((E)-3-((Z)-3-((1H-imidazol-5-yl)methylene)-2-oxoindolin-6-yl)allylamino)-N-(4-fluorobenzyl)nicotinamide], the EC50 in assay [1] (setting [3]) was under 1000 nM. This molecule returned a half-maximal inhibitory concentration (IC50) at PDK1 (setting [4]) of under 100 nM.
Turning to `Nc1ncnc2ccc(-c3ccc(CNc4ncccc4C(=O)NCc4cc(F)c(F)cc4F)s3)cc12` [Example 3.11, 2-({[5-(4-aminoquinazolin-6-yl)thiophen-2-yl]methyl}amino)-N-(2,4,5-trifluorobenzyl)pyridine-3-carboxamide (TFA salt)], the EC50 in assay [1] (setting [3]) was over 10000 nM. The same molecule showed a half-maximal inhibitory concentration (IC50) against PDK1 (setting [4]) of under 100 nM.
Turning to `C[C@H](NC(=O)c1cccnc1N[C@@H](COc1ccc2c(c1)[nH]c(=O)n2C)c1ccccc1)c1ccc(F)c(F)c1` [Example 16.13, N—((S)-1-(3,4-difluorophenyl)ethyl)-2-((R)-2-(1-methyl-2-oxo-2,3-dihydro-1H-benzo[d]imidazol-5-yloxy)-1-phenylethylamino)nicotinamide], the EC50 in assay [1] (setting [3]) was 1000 to 10000 nM. Further, the IC50 at PDK1 (setting [4]) is under 100 nM.
In the case of `C[C@H](NC(=O)c1cc(C#N)cnc1NCc1ccc(-c2cnc(N)c(C(=O)N(C)C)c2)cc1)c1ccc(F)cc1` [Example 205, (S)-2-amino-5-(4-((5-cyano-3-(1-(4-fluorophenyl)ethylcarbamoyl)pyridin-2-ylamino)methyl)phenyl)-N,N-dimethylnicotinamide], the concentration for a half-maximal effect (EC50) in assay [1] (setting [2]) was 1000 to 10000 nM. This molecule gave an IC50 on PDK1 (inhibition of PDK1 in vitro) of 100 to 1000 nM.
`C[C@H](NC(=O)c1nc(C#N)cnc1NCc1ccc(-c2cn(C)c3ncnc(N)c23)cc1)c1ccc(F)c(F)c1` [Example 27, (S)-3-(4-(4-amino-7-methyl-7H-pyrrolo[2,3-d]pyrimidin-5-yl)benzylamino)-6-cyano-N-(1-(3,4-difluorophenyl)ethyl)pyrazine-2-carboxamide]: the 50% effective concentration (EC50) in assay [1] (setting [3]) is under 1000 nM. On PDK1 (setting [4]), this molecule came in with an IC50 of under 100 nM.
With `O=C1Nc2cc(/C=C/CNc3ncccc3C(=O)NCc3ccc(F)c(F)c3)ccc2/C1=C/c1cnc[nH]1` [Example 15.1, 2-((E)-3-((Z)-3-((1H-imidazol-5-yl)methylene)-2-oxoindolin-6-yl)allylamino)-N-(3,4-difluorobenzyl)nicotinamide], the 50% effective concentration (EC50) in assay [1] (setting [3]) is under 1000 nM. At PDK1 (setting [4]), this molecule showed an IC50 of under 100 nM.
With `CC(C)(N)CCc1nc(-c2ccc(CNc3ncc(C(F)(F)F)cc3C(=O)Nc3ccc(F)cc3)cc2)cnc1N` [Example 83, 2-{4-[5-Amino-6-(3-amino-3-methyl-butyl)-pyrazin-2-yl]-benzylamino}-N-(4-fluoro-phenyl)-5-trifluoro-methyl-nicotinamide], in assay [1] (setting [2]), the EC50 was under 1000 nM. The IC50 at PDK1 (inhibition of PDK1 in vitro) was under 100 nM.
Consider `C[C@H](NC(=O)c1cc(C#N)cnc1NCc1ccc(-c2ccc(N)nc2)c(F)c1)c1ccc(F)cc1` [Example 129, (S)-2-(4-(6-aminopyridin-3-yl)-3-fluorobenzylamino)-5-cyano-N-(1-(4-fluorophenyl)ethyl) nicotinamide], for which the 50% effective concentration (EC50) in assay [1] (setting [2]) fell in the range of 1000 to 10000 nM. In addition, the IC50 against PDK1 (inhibition of PDK1 in vitro) is 100 to 1000 nM.
With `Nc1n[nH]c2ncc(-c3ccc(CNc4ncc(C(F)(F)F)cc4-c4nc5cc(F)ccc5o4)cc3)cc12` [Example 348, 5-(4-((3-(5-fluorobenzo[d]oxazol-2-yl)-5-(trifluoro-methyl)pyridin-2-ylamino)methyl)phenyl)-1H-pyrazolo [3,4-b]pyridin-3-amine], the EC50 in assay [1] (setting [2]) was over 10000 nM. This molecule also displayed a 50% inhibitory concentration (IC50) on PDK1 (inhibition of PDK1 in vitro) of over 5000 nM.
Take `Cc1cnc(/C=C2\C(=O)Nc3cc(/C=C/CNc4ncccc4C(=O)NCc4ccc(F)c(F)c4)ccc32)[nH]1` [Example 15.9, N-(3,4-Difluoro-benzyl)-2-((E)-3-{3-[1-(5-methyl-1H-imidazol-2-yl)-meth-(Z)-ylidene]-2-oxo-2,3-dihydro-1H-indol-6-yl}-allylamino)-nicotinamide]: the 50% effective concentration (EC50) in assay [1] (setting [3]) was 1000 to 10000 nM. At PDK1 (setting [4]), this molecule displayed a half-inhibitory concentration (IC50) of under 100 nM.
Consider `Nc1ncnc2ccc(-c3ccc(CNc4ncccc4C(=O)NCc4cc(F)ccc4F)s3)cc12` [Example 3.6, 2-({[5-(4-aminoquinazolin-6-yl)thiophen-2-yl]methyl}amino)-N-(2,5-difluorobenzyl)pyridine-3-carboxamide], for which, in assay [1] (setting [3]), the concentration giving a half-maximal response (EC50) is over 10000 nM. Besides, the IC50 against PDK1 (setting [4]) was 100 to 1000 nM.
In the case of `C[C@H](NC(=O)c1cc(C#N)cnc1NCc1ccc(-c2cnc(N)c(O[C@H]3CCNC3)n2)cc1)c1ccc(F)cc1` [Example 162, 2-{4-[5-Amino-6-((S)-pyrrolidin-3-yloxy)-pyrazin-2-yl]-benzylamino}-5-cyano-N-[(S)-1-(4-fluoro-phenyl)-ethyl]-nicotinamide], the EC50 in assay [1] (setting [2]) was under 1000 nM. The half-inhibitory concentration (IC50) on PDK1 (inhibition of PDK1 in vitro) was under 100 nM.

The values are drawn from US10030016B2 (Sunesis Pharmaceuticals, Inc., priority 2009, dated 2018).
